The values that follow come from patent US4575498A, “Method for restoring depleted purine nucleotide pools” (priority 1983, dated 1986).

Broadly, the Ki is a measure of affinity in units of concentration, obtained from inhibition or displacement. Read a high Ki as a looser hold on the target. One may read the Km as the substrate concentration at which the rate is half of its maximum.

One data set has as its system cardiovascular system. The settings on record: prior art statement; cited from earlier work.
Data set [1] addresses T1, adenylosuccinate lyase (skeletal muscle) (Mus musculus, UniProt P54822).
T1 construct: the hearts and gastrocnemius muscles were excised, weighed, and homogenized to a slurry; from tissue; host or cells: gastrocnemius (skeletal) muscle of six-week-old C57BL/6J mice; dialyzed 10,000×g supernatant
T1 sequence (P54822 2-484 limits assumed): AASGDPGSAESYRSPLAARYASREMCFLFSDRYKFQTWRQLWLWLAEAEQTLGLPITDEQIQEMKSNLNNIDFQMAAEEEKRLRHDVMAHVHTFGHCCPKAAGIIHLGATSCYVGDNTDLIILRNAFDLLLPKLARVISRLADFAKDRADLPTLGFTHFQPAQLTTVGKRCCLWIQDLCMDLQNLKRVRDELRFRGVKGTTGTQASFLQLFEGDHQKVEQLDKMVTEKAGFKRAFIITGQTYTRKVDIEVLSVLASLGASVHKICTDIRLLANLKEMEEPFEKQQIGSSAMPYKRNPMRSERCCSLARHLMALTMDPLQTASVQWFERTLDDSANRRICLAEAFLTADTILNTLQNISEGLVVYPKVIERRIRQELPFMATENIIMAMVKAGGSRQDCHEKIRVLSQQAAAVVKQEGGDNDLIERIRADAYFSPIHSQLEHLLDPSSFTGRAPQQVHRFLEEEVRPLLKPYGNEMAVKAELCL
As to the kind of experiment: Assay of adenylosuccinate lyase, skeletal muscle enzyme. Type of data set: biochemical, C57BL/6J mice. The procedure:
(§1) Preparation and Assay of Adenylosuccinate Lyase--Six-week-old C57BL/6J mice were killed, and the hearts and gastrocnemius muscles were excised, weighed, and homogenized to a slurry in 4 volumes of 50 mM Tris-HCl, pH 7.4 at 25° C. containing 1 mM EDTA and 1 mM β-mercaptoethanol in a TenBroeck glass homogenizer. The homogenate was centrifuged at 10,000×g for 15 min and the supernatant was dialyzed against 1,000 volumes of the extraction buffer for 2 h at 4° C. The lyase activity was partially stabilized by the addition of EDTA and β-mercaptoethanol, but some activity was lost even on storage at -70° C.
(§2) The assays were carried out at pH 7.4 were reaction mixtures that contained 50 mM Tris-HCl buffer, 1 mM EDTA, 1 mM β-mercaptoethanol, 20 μM adenylosuccinate, and the enzyme extract (protein concentration, 0.13-0.20 mg/ml). The decrease in absorbance at 280 nm was measured using a Gilford recording spectrophotometer. All assays were done at 25° C. and were linear with respect to time of incubation and with the amount of protein in extract added to the assay.
(§3) These are average values for experiments with 4 separate enzyme preparations. The experimental points in the double reciprocal plots were fitted to the best line by the method of least squares with all points being weighted equally.

In data set [2] the target is T2, adenylosuccinate lyase (cardiac muscle) (Mus musculus, UniProt P54822).
T2 construct: the hearts and gastrocnemius muscles were excised, weighed, and homogenized to a slurry; from tissue; host or cells: heart of six-week-old C57BL/6J mice; dialyzed 10,000×g supernatant
T2 sequence (P54822 2-484 limits assumed): T1 sequence (P54822 2-484 limits assumed)
Description: Assay of adenylosuccinate lyase, cardiac enzyme. Type of data set: biochemical, C57BL/6J mice. As to the method: as §1, §2, §3

Substrate in data set [3]: O=C(O)C[C@H](Nc1ncnc2c1ncn2[C@@H]1O[C@H](COP(=O)(O)O)[C@@H](O)[C@H]1O)C(=O)O
As to the kind of experiment: Assay of adenylosuccinate lyase, cardiac enzyme. Type of data set: biochemical, C57BL/6J mice. The settings on record: other: cardiac muscle enzyme, pH 7.4, 25° C., 4 enzyme preparations. The procedure: as §1, §2, §3

Substrate in data set [4]: O=C(O)C[C@H](Nc1ncnc2c1ncn2[C@@H]1O[C@H](COP(=O)(O)O)[C@@H](O)[C@H]1O)C(=O)O
Description: Assay of adenylosuccinate lyase, skeletal muscle enzyme. It is filed as biochemical, C57BL/6J mice. The settings on record: other: skeletal muscle enzyme, pH 7.4, 25° C., 4 enzyme preparations. As to the method:
as §1, §2, §3

“Also recorded” adds a separate entry of the source.

As for `Nc1ncnc2c1ncn2[C@@H]1O[C@H](CO)[C@@H](O)[C@H]1O` [adenosine], the hemodynamic effects entry with cardiovascular system is listed as “profound changes in the hemodynamic status; also recorded: deleterious hemodynamic effects”. Consider `O=c1[nH]cnc2nc[nH]c12` [hypoxanthine], for which, in the data set with cardiovascular system, the hemodynamic effects entry is “deleterious hemodynamic effects”. On to `NC(=O)c1ncn([C@@H]2O[C@H](COP(=O)(O)O)[C@@H](O)[C@H]2O)c1N` [AICAR, 5-Amino-4-imidazolecarboxamide Ribotide], for which the Ki is 7.6 ± 3.2 µM in data set [1] and 4.5 ± 1.7 µM in data set [2]. The “maximal AICAR concentration exceeding Ki of adenylosuccinate lyase” value in data set [1] (skeletal muscle) is 18 fold; in data set [2] (cardiac muscle) it was 180 fold.

As to `OC[C@H]1O[C@@H](n2cnc3c(O)ncnc32)[C@H](O)[C@@H]1O` [inosine], the hemodynamic effects entry in the data set on cardiovascular system is given as “deleterious hemodynamic effects”.

B1: adenylosuccinate lyase (cardiac muscle) (Mus musculus) (protein)
chain: T1 sequence (P54822 2-484 limits assumed)
notes: the hearts and gastrocnemius muscles were excised, weighed, and homogenized to a slurry; from tissue; host or cells: heart of six-week-old C57BL/6J mice; dialyzed 10,000×g supernatant
With B1, the Km in data set [3] was found to be 2.2 ± 0.3 µM.

B2: adenylosuccinate lyase (skeletal muscle) (Mus musculus) (protein)
chain: T1 sequence (P54822 2-484 limits assumed)
notes: the hearts and gastrocnemius muscles were excised, weighed, and homogenized to a slurry; from tissue; host or cells: gastrocnemius (skeletal) muscle of six-week-old C57BL/6J mice; dialyzed 10,000×g supernatant
As to B2, the Michaelis-Menten constant (Km) in data set [4] turned out to be 4.5 ± 1.5 µM.
